Reference: patent publication US12428406B2 (PMV Pharmaceuticals, Inc., priority 2019, dated 2025)

Molecular target: T1, p53 Y220C (Homo sapiens, UniProt P04637, Y220C)
T1 construct: The recombinant protein was a truncation mutant containing only amino acids 94-312 of p53; made in house; host or cells: E. coli
Assay: In vitro DNA binding activity assay (HTRF / TR-FRET): stabilization of p53 Y220C and increase of its DNA binding activity
Format: biochemical
Conditions: recombinant His-tagged p53 Y220C DNA binding domain (aa 94-312), biotin-labeled consensus DNA, incubated at 27° C. or 29° C. for 60 min
Outline: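 Compound effect on DNA binding of recombinant His-p53 Y220C (E. coli) to biotin-labeled consensus DNA, expressed as SC150, the concentration giving 50% increase versus untreated. Serial 3-fold DMSO dilutions of 4.5 mM stocks; room-temperature steps of 15 then 20 min.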

T1 sequence (P04637 94-312, change not shown): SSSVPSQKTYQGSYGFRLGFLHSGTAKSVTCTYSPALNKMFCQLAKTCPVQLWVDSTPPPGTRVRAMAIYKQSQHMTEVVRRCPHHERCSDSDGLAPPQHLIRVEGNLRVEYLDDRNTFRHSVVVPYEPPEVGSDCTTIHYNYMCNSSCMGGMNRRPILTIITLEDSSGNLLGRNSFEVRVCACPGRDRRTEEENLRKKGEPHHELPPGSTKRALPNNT

SC150 (concentration of the compound required to increase the DNA binding activity by 50%) | SMILES
+ (+ = 0 μM ≤ SC150 < 0.05 μM) | CNC(=O)c1ccc(NCC#Cc2cc3c(N[C@H]4CC[C@@H](N5CC6(COC6)C5)CC4)cccc3n2CC(F)(F)F)c(OCCOC)c1 [Compound 237A, 3-(2-methoxyethoxy)-N-methyl-4-{[3-(4-{[(1S,4S)-4-{2-oxa-6-azaspiro[3.3]heptan-6-yl}cyclohexyl]amino}-1-(2,2,2-trifluoroethyl)-1H-indol-2-yl)prop-2-yn-1-yl]amino} benzamide]
+ (+ = 0 μM ≤ SC150 < 0.05 μM) | CCNC(=O)c1ccc(NCC#Cc2cc3c(N[C@H]4CC[C@@H](N5CC6(COC6)C5)CC4)cccc3n2CC(F)(F)F)c(OC)c1 [Compound 238A, N-ethyl-3-methoxy-4-{[3-(4-{[(1R,4R)-4-{2-oxa-6-azaspiro[3.3]heptan-6-yl}cyclohexyl]amino}-1-(2,2,2-trifluoro-ethyl)-1H-indol-2-yl)prop-2-yn-1-yl]amino} benzamide]
+ (+ = 0 μM ≤ SC150 < 0.05 μM) | CNC(=O)c1ccc(NCC#Cc2cc3c(N[C@H]4CC[C@H](N5CC6(COC6)C5)CC4)cccc3n2CC(F)(F)F)c(OCCF)c1 [Compound 240A, 3-(2-fluoroethoxy)-N-methyl-4-{[3-(4-{[(1R,4R)-4-{2-oxa-6-azaspiro[3.3]heptan-6-yl}cyclohexyl]amino}-1-(2,2,2-trifluoroethyl)-1H-indol-2-yl)prop-2-yn-1-yl]amino}benzamide]
+ (+ = 0 μM ≤ SC150 < 0.05 μM) | CNC(=O)c1ccc(NCC#Cc2cc3c(N[C@H]4CC[C@@H](N5CC6(COC6)C5)CC4)cccc3n2CC(F)(F)F)c(OCCF)c1 [Compound 241A, 3-(2-fluoroethoxy)-N-methyl-4-{[3-(4-{[(1S,4S)-4-{2-oxa-6-azaspiro[3.3]heptan-6-yl}cyclohexyl]amino}-1-(2,2,2-trifluoroethyl)-1H-indol-2-yl)prop-2-yn-1-yl]amino}benzamide]
+ (+ = 0 μM ≤ SC150 < 0.05 μM) | CNC(=O)c1ccc(NCC#Cc2cc3c(N[C@H]4CC[C@H](N5CC6(COC6)C5)CC4)cccc3n2CC(F)(F)F)c(OCC#N)c1 [Compound 242A, 3-(cyanomethoxy)-N-methyl-4-{[3-(4-{[(1R,4R)-4-{2-oxa-6-azaspiro[3.3]heptan-6-yl}cyclohexyl]amino}-1-(2,2,2-trifluoroethyl)-1H-indol-2-yl)prop-2-yn-1-yl]amino}benzamide]
+ (+ = 0 μM ≤ SC150 < 0.05 μM) | CNC(=O)c1ccc(NCC#Cc2cc3c(N[C@H]4CC[C@@H](N5CC6(COC6)C5)CC4)cccc3n2CC(F)(F)F)c(OCC#N)c1 [Compound 243A, 3-(cyanomethoxy)-N-methyl-4-{[3-(4-{[(1S,4S)-4-{2-oxa-6-azaspiro[3.3]heptan-6-yl}cyclohexyl]amino}-1-(2,2,2-trifluoroethyl)-1H-indol-2-yl)prop-2-yn-1-yl]amino}benzamide]
++ (++ = 0.05 μM ≤ SC150 < 0.1 μM) | CNc1cc(S(C)(=O)=O)ccc1OCC#Cc1cc2c(N[C@H]3CC[C@@H](N4CC5(COC5)C4)CC3)cccc2n1CC(F)(F)F [Compound 244A, 2-{3-[4-methanesulfonyl-2-(methylamino)phenoxy]prop-1-yn-1-yl}-N-[(1S,4S)-4-{2-oxa-6-azaspiro[3.3]heptan-6-yl}cyclohexyl]-1-(2,2,2-trifluoroethyl)-1H-indol-4-amine]
+ (+ = 0 μM ≤ SC150 < 0.05 μM) | CNc1cc(S(C)(=O)=O)ccc1OCC#Cc1cc2c(NC3CCC(N4CC5(COC5)C4)CC3)cccc2n1CC(F)(F)F [Compound 245A, 2-{3-[4-methanesulfonyl-2-(methylamino)phenoxy]prop-1-yn-1-yl}-N-[(1R,4R)-4-{2-oxa-6-azaspiro[3.3]heptan-6-yl}cyclohexyl]-1-(2,2,2-trifluoroethyl)-1H-indol-4-amine]
+ (+ = 0 μM ≤ SC150 < 0.05 μM) | CNC(=O)c1ccc(NCC#Cc2cc3c(N[C@H]4CC[C@H](N5CC6(COC6)C5)CC4)cccc3n2CC(F)(F)F)c(O)c1 [Compound 248A, 3-hydroxy-N-methyl-4-{[3-(4-{[(1R,4R)-4-{2-oxa-6-azaspiro[3.3]heptan-6-yl}cyclo-hexyl]amino}-1-(2,2,2-trifluoroethyl)-1H-indol-2-yl)prop-2-yn-1-yl]amino}benzamide]
+ (+ = 0 μM ≤ SC150 < 0.05 μM) | COc1cc(C#N)ccc1NCC#Cc1cc2c(NC3CCC(N4CC5(COC5)C4)CC3)cccc2n1CC(F)(F)F (centres unmarked) [Compound 249A, 3-methoxy-4-[(3-{4-[(4-{2-oxa-6-azaspiro[3.3]heptan-6-yl}cyclohexyl)amino]-1-(2,2,2-trifluoroethyl)-1H-indol-2-yl}prop-2-yn-1-yl)amino]benzonitrile]
+ (+ = 0 μM ≤ SC150 < 0.05 μM) | COc1cc(C#N)ccc1NCC#Cc1cc2c(NC3CCC(N4CC5(COC5)C4)CC3)cccc2n1CC(F)(F)F [Compound 250A, 3-methoxy-4-{[3-(4-{[(1S,4S)-4-{2-oxa-6-azaspiro[3.3]heptan-6-yl}cyclohexyl]amino}-1-(2,2,2-trifluoroethyl)-1H-indol-2-yl)prop-2-yn-1-yl]amino}benzonitrile]
+ (+ = 0 μM ≤ SC150 < 0.05 μM) | COc1cc(C(C)(C)C#N)ccc1NCC#Cc1cc2c(NC3CCC(N4CC5(COC5)C4)CC3)cccc2n1CC(F)(F)F [Compound 251A, 2-(3-methoxy-4-{[3-(4-{[(1R,4R)-4-{2-oxa-6-azaspiro[3.3]heptan-6-yl}cyclohexyl]amino}-1-(2,2,2-trifluoroethyl)-1H-indol-2-yl)prop-2-yn-1-yl]amino}phenyl)-2-methylpropanenitrile]
+ (+ = 0 μM ≤ SC150 < 0.05 μM) | CNC(=O)c1ccc(NCC#Cc2cc3c(NC4CCC(N5CC6(COC6)C5)CC4)cccc3n2CC(F)(F)F)c(OCF)c1 [Compound 253A, 3-(fluoromethoxy)-N-methyl-4-{[3-(4-{[(1R,4R)-4-{2-oxa-6-azaspiro[3.3]heptan-6-yl}cyclohexyl]amino}-1-(2,2,2-trifluoroethyl)-1H-indol-2-yl)prop-2-yn-1-yl]amino} benzamide]
+ (+ = 0 μM ≤ SC150 < 0.05 μM) | CNC(=O)c1ccc(NCC#Cc2cc3c(NC4CCC(N5CC6(COC6)C5)CC4)cccc3n2CC(F)(F)F)c(OCCC#N)c1 [Compound 255A, 3-(2-cyanoethoxy)-N-methyl-4-{[3-(4-{[(1R,4R)-4-{2-oxa-6-azaspiro[3.3]heptan-6-yl}cyclohexyl]amino}-1-(2,2,2-trifluoroethyl)-1H-indol-2-yl)prop-2-yn-1-yl]amino}benzamide]
+ (+ = 0 μM ≤ SC150 < 0.05 μM) | CS(=O)(=O)c1ccc(NCC#Cc2cc3c(NC4CCC(N5CC6(COC6)C5)CC4)cccc3n2CC(F)(F)F)c(OCF)c1 [Compound 257A, 2-(3-{[2-(fluoro-methoxy)-4-methane-sulfonylphenyl]amino}prop-1-yn-1-yl)-N-[(1R,4R)-4-{2-oxa-6-azaspiro[3.3]heptan-6-yl}cyclo-hexyl]-1-(2,2,2-trifluoroethyl)-1H-indol-4-amine]
+ (+ = 0 μM ≤ SC150 < 0.05 μM) | N#CCOc1cc(S(N)(=O)=O)ccc1NCC#Cc1cc2c(NC3CCC(N4CC5(COC5)C4)CC3)cccc2n1CC(F)(F)F [Compound 259A, 3-(cyanomethoxy)-4-{[3-(4-{[(1R,4R)-4-{2-oxa-6-azaspiro[3.3]heptan-6-yl}cyclo-hexyl]amino}-1-(2,2,2-trifluoroethyl)-1H-indol-2-yl)prop-2-yn-1-yl]amino}benzene-1-sulfonamide]
+ (+ = 0 μM ≤ SC150 < 0.05 μM) | NS(=O)(=O)c1ccc(NCC#Cc2cc3c(N[C@H]4CC[C@H](N5CC6(COC6)C5)CC4)cccc3n2CC(F)(F)F)c(OCF)c1 [Compound 261A, 3-(fluoromethoxy)-4-{[3-(4-{[(1R,4R)-4-{2-oxa-6-azaspiro[3.3]heptan-6-yl}cyclo-hexyl]amino}-1-(2,2,2-trifluoroethyl)-1H-indol-2-yl)prop-2-yn-1-yl]amino}benzene-1-sulfonamide]
+ (+ = 0 μM ≤ SC150 < 0.05 μM) | CNS(=O)(=O)c1ccc(NCC#Cc2cc3c(N[C@H]4CC[C@H](N5CC6(COC6)C5)CC4)cccc3n2CC(F)(F)F)c(OC)c1 [Compound 263A, 4-((3-(4-(((1R,4R)-4-(2-oxa-6-azaspiro[3.3]heptan-6-yl)cyclo-hexyl)amino)-1-(2,2,2-trifluoroethyl)-1H-indol-2-yl)prop-2-yn-1-yl)amino)-3-methoxy-N-methylbenzene-sulfonamide]
+ (+ = 0 μM ≤ SC150 < 0.05 μM) | COc1cc(Cl)ccc1NCC#Cc1cc2c(N[C@H]3CC[C@H](N4CC5(COC5)C4)CC3)cccc2n1CC(F)(F)F [Compound 265A, N-((1R,4R)-4-(2-oxa-6-azaspiro[3.3]heptan-6-yl)cyclohexyl)-2-(3-((4-chloro-2-methoxyphenyl)amino)prop-1-yn-1-yl)-1-(2,2,2-trifluoroethyl)-1H-indol-4-amine]
+ (+ = 0 μM ≤ SC150 < 0.05 μM) | COc1cc(S(=O)(=O)N(C)C)ccc1NCC#Cc1cc2c(N[C@H]3CC[C@H](N4CC5(COC5)C4)CC3)cccc2n1CC(F)(F)F [Compound 267A, 4-((3-(4-(((1R,4R)-4-(2-oxa-6-azaspiro[3.3]heptan-6-yl)cyclo-hexyl)amino)-1-(2,2,2-trifluoroethyl)-1H-indol-2-yl)prop-2-yn-1-yl)amino)-3-methoxy-N,N-dimethylbenzene-sulfonamide]
